Test results taken from paper PMC4974056, “The proposed channel-enzyme transient receptor potential melastatin 2 does not possess ADP ribose hydrolase activity” (eLife, 2016).
Several values for one entry are separate records, joined by “and”; a condition that tells them apart may be missing. Equal values may be shown once.

Key:
[1] = target: T5L-TRPM2 (Homo sapiens, UniProt O94759, G984L/INS985E/Y985D); assay: Excised inside-out patch-clamp recordings, ADPR-dependent channel activation; assay type: cell-based
Experimental: Oocytes isolated from anaesthetized Xenopus laevis were digested with collagenase, injected with 10–70 ng cRNA, and stored at 18°C. Recordings were done 2–3 days after injection.
The tip of the patch pipette was filled to ~1 cm height with 140 mM Na-gluconate, 2 mM Mg-gluconate2, 10 mM HEPES (pH 7.4 with NaOH); free [Ca^2+] ~4 μM. The pipette electrode was placed into a 140-mM NaCl-based solution carefully layered on top. Bath solution contained 140 mM Na-gluconate, 2 mM Mg-gluconate2, 10 mM HEPES (pH 7.1 with NaOH), and either 1 mM EGTA (to obtain 'zero' (~8 nM) Ca^2+) or 1 mM Ca-gluconate2 (to obtain 125 μM free Ca^2+) ([Csanády and Törocsik, 2009]). Na-ADPR was used at final concentrations of 0.32, 1, 3.2, 10, 32, 100, or 1000 μM, and the Na^+ salt of ε-ADPR at 100 μM. Macroscopic TRPM2 currents were recorded at 25°C at a membrane potential of −20 mV. Currents were amplified, filtered at 2 kHz (Axopatch 200B), digitized at 10 kHz (Digidata 1322A), and stored to disk (Pclamp9, Molecular Devices, Sunnyvale, CA, USA).
Dose dependence of ADPR-induced current activation, expressed as the ratio of mean macroscopic currents observed in the presence of various test [ADPR] (I) and 32 (or 100) μM ADPR (Imax) in the same patch, was fitted to the Hill equation (I/Imax = [ADPR]^n/(K^n+[ADPR]^n). Dose dependence of ADPR-activation in the presence of 100 μM ε-ADPR was expressed as the ratio of the currents observed in the presence of various test [ADPR] + 100 μM ε-ADPR (I) and 100 μM ADPR alone (Imax) in the same patch, and was fitted to the Hill equation substituting K' = K(1+[ε-ADPR]/KI) instead of K (K and n fixed to their control values). Macroscopic current decay time courses following removal of ADPR or Ca^2+ were fitted by single exponentials using the method of least squares.

[2] = target: T1, Chi4S (Homo sapiens, UniProt O94759); assay: Ligand binding assay based on quenching of ε-ADPR fluorescence; settings: 100 μM Chi4S, 20 mM Tris pH 8.5/100 mM NaCl, 16 mM MgCl2; assuming negligible fluorescence of bound analog; read-out: Kd (upper estimate)
T1 construct: its C-terminal cytosolic NUDT9-homology (NUDT9H) domain; made in house; host or cells: E. coli BL21 (DE3), pJ411 plasmid
Experimental: The ligand binding ability of purified Chi4S protein was assessed using fluorescence quenching of the ADPR analogue 1, N^6-ethenoadenosine-5’-O-diphosphoribose (ε-ADPR - BIOLOG Life Science Institute, Bremen, Germany). A 350-μl volume of 100 μM Chi4S protein in 20 mM Tris (pH 8.5)/100 mM NaCl buffer, supplemented with 16 mM MgCl2, was titrated by increasing concentrations of ε-ADPR. Fluorescence emission scans (350–700 nm) were recorded at a fixed excitation wavelength of 310 nm (Hitachi F-7000, Hitachi High Technologies, Maidenhead, UK). Fluorescence emission for ε-ADPR peaks at ~410 nm. Protein-free buffer or 100 μM bovine serum albumin (BSA; instead of Chi4S) were used as controls. Data are shown as mean ± S.D. of two independent experiments.
Dose dependence of fluorescence (Em = 420 nm) of free ε-ADPR (in buffer) was fitted by an empirical non-linear function to produce a smooth calibration curve, used to obtain upper estimates of free [ε-ADPR] in the presence of 100 μM Chi4S protein and various total [ε-ADPR], assuming negligible fluorescence for the bound, relative to the free, form of the analog. The plot of free vs. total [ε-ADPR] was fitted by the simple binding equation [ε-ADPR]free=0.5([ε-ADPR]total−[P]total−Kd+([ε-ADPR]total−[P]total−Kd)^2+4Kd[ε-ADPR]total),
where [P]total is the total concentration of Chi4S protein (100 μM), and Kd is a free parameter. […]

T1 sequence (O94759 with tags, fused parts or gaps limits assumed): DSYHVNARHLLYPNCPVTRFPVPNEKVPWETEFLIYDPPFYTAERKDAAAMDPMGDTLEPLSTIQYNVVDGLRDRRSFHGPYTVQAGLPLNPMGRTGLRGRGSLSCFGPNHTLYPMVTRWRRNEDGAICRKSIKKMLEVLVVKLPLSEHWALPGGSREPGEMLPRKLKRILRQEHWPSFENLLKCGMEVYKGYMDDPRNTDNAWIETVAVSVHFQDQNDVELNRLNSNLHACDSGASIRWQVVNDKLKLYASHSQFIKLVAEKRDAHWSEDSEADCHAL
T5L-TRPM2, sequence (O94759 whole entry, stated change not applied): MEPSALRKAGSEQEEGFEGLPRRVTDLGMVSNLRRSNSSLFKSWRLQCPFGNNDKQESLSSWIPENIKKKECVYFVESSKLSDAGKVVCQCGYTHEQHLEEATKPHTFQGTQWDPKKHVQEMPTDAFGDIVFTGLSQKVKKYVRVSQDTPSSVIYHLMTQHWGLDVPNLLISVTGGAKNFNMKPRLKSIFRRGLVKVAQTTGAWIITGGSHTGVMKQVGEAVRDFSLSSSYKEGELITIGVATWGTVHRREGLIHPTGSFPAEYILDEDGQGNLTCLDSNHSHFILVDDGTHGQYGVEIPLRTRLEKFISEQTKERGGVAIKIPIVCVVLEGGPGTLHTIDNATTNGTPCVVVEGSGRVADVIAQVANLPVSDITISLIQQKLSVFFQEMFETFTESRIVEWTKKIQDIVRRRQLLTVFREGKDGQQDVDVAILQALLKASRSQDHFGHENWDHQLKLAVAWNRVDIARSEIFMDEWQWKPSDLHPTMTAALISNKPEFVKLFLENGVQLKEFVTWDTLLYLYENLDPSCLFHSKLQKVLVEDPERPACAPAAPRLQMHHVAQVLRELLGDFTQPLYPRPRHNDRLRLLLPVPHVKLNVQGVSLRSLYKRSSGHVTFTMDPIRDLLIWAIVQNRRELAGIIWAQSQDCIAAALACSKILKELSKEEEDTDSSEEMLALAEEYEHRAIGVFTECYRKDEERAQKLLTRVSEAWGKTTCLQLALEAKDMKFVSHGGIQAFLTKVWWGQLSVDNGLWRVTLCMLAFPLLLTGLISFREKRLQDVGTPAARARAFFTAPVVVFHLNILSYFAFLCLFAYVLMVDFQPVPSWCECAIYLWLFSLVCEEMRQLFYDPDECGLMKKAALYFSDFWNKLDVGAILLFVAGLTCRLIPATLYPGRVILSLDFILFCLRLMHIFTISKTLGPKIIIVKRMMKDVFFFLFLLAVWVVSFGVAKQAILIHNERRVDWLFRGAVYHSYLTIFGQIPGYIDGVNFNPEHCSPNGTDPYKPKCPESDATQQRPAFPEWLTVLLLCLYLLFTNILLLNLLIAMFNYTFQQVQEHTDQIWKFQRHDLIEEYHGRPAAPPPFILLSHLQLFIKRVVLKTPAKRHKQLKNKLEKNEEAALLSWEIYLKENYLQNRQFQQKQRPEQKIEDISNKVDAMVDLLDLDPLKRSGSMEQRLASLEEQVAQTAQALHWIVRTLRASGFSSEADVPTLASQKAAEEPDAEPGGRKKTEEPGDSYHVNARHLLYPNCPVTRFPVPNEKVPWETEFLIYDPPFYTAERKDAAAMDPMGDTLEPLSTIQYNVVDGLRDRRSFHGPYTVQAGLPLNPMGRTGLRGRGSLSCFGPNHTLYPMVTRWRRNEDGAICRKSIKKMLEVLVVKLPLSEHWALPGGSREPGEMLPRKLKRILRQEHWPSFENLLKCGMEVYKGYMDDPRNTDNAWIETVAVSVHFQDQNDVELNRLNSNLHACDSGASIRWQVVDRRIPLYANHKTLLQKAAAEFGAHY

In the case of O=P(O)(OC[C@H]1OC(O)[C@H](O)[C@@H]1O)OP(=O)(O)OC[C@H]1O[C@@H](n2cnc3c2ncn2ccnc32)[C@H](O)[C@@H]1O (stereo partly drawn) [ε-ADPR, 1, N^6-ethenoadenosine-5’-O-diphosphoribose], the “effect on ADPR-evoked TRPM2 currents” value ([1]; inside-out patch, 1 or 100 μM ADPR) is reported as “suppressed ADPR-evoked TRPM2 currents in a dose-dependent manner”, the Ki ([1]; right-shift of ADPR dose response in the presence of 100 μM ε-ADPR, competitive fit, read-out: KI (Kε-ADPR) for binding to native NUDT9H) is reported as 112 ± 24 µM and the Kd [2] is reported as 111 µM and ≤ 111 µM.
